Data reported in patent US20240158446A1, “CYCLIC COMPOUND HAVING SELECTIVE INHIBITORY ACTION ON KRAS OVER HRAS AND NRAS” (CHUGAI SEIYAKU KABUSHIKI KAISHA, priority 2021, published 2024).
Where two headings read alike, the source gives them in different places. *1 amine or outer side, *2 acyl side, *3 side chain or, on linkers, in order; H or OH if unused. Where a SMILES comes first, the peptide text is derived from it. Bridges are numbered along the chain shown (N, C = ends). [ ]: non-standard residue; d: D form. The star is where a group is joined. hPhe(3,5-F2-4-CF3) = N[C@@H](CCc1cc(F)c(C(F)(F)F)c(F)c1)C(=O)O; hPhe(3-Cl-4-CF3) = N[C@@H](CCc1ccc(C(F)(F)F)c(Cl)c1)C(=O)O; NPrPhe(4-CF3) = CCCN[C@@H](Cc1ccc(C(F)(F)F)cc1)C(=O)O; X9 = CCCN([C@@H](Cc1ccc(F)cc1)C(=O)[*:2])[*:1]; NMePhe(4-Me) = CN[C@@H](Cc1ccc(C)cc1)C(=O)O; NMeGly(cPent) = CN[C@H](C(=O)O)C1CCCC1; Hyp = O=C(O)[C@@H]1C[C@@H](O)CN1; NMeD = CN[C@@H](CC(=O)O)C(=O)O; NMeL = CN[C@@H](CC(C)C)C(=O)O; αMeL = CC(C)C[C@](C)(N)C(=O)O; Morpholide = C1CN(*)CCO1; Ac5c = NC1(C(=O)O)CCCC1; NEtG = CCNCC(=O)O; Sar = CNCC(=O)O

Assays:
[1] = biological target: GDP-bound KRAS wild-type protein (Homo sapiens, UniProt P01116); test: Binding to KRAS by surface plasmon resonance (SPR), Single Cycle Kinetics; settings: GDP-bound KRAS wild-type protein, read-out: KRAS KD
[2] = biological target: GDP-bound NRAS wild-type protein (Homo sapiens, UniProt P01111); test: Binding to NRAS by surface plasmon resonance (SPR), Single Cycle Kinetics; settings: for NRAS/KRAS (ratio of KD value with respect to NRAS to KD value with respect to KRAS) / NRAS/KRAS (ratio of KD value for NRAS to KD value for KRAS): SPR, GDP-bound NRAS wild-type protein vs GDP-bound KRAS wild-type protein
[3] = biological target: GDP-bound HRAS wild-type protein (Homo sapiens, UniProt P01112); test: Binding to HRAS by surface plasmon resonance (SPR), Single Cycle Kinetics; settings: for HRAS/KRAS (ratio of KD value with respect to HRAS to KD value with respect to KRAS) / HRAS/KRAS (ratio of KD value for HRAS to KD value for KRAS): SPR, GDP-bound HRAS wild-type protein vs GDP-bound KRAS wild-type protein
[4] = SPR Single Cycle Kinetics, 1:1 binding model

Sequence of GDP-bound KRAS wild-type protein (P01116 whole entry): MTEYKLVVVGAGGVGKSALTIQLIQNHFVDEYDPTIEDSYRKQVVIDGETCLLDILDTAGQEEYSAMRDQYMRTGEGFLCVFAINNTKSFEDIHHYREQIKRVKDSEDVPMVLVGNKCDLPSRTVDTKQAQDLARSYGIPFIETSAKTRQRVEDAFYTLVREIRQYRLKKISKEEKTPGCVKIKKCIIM
Sequence of GDP-bound HRAS wild-type protein (P01112 whole entry): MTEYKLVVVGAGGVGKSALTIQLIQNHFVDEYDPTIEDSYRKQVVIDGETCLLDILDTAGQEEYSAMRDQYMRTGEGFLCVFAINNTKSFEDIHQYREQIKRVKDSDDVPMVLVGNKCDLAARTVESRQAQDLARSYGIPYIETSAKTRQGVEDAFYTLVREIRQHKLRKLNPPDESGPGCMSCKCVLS
Sequence of GDP-bound NRAS wild-type protein (P01111 whole entry): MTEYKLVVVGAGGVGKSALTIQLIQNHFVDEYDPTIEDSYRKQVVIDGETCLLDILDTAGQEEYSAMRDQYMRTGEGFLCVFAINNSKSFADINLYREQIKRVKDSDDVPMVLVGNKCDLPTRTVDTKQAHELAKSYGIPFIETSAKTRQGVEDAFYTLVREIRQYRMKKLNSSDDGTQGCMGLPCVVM

Row | Structure (SMILES) | Kd [1, 4] | Kd ([1]; SPR, Single Cycle Kinetics) | NRAS/KRAS (ratio of KD value for NRAS to KD value for KRAS) [2] | HRAS/KRAS (ratio of KD value for HRAS to KD value for KRAS) [3] | further results
1 | CCCN1C(=O)CN(C)C(=O)CN(C)C(=O)[C@H]([C@@H](C)CC)NC(=O)[C@H](CC(C)C)N(C)C(=O)C[C@@H](C(=O)N(C)C)N(C)C(=O)[C@H](C2CCCC2)N(C)C(=O)C2(CCCC2)NC(=O)[C@@H]2C[C@@H](OCC)CN2C(=O)[C@H](CCc2ccc(C(F)(F)F)c(Cl)c2)NC(=O)CN(C)C(=O)[C@@H]1Cc1ccc(C(F)(F)F)cc1 [PP0415] ([NMeL]I[Sar][Sar][NPrPhe(4-CF3)][Sar][hPhe(3-Cl-4-CF3)][Hyp](Et)[Ac5c][NMeGly(cPent)][NMeD]-NMe2; lactam N-11) | 0.018 nM |  |  |  | NRAS/KRAS (ratio of KD value with respect to NRAS to KD value with respect to KRAS) [2]: B (a compound having 3 or more and less than 10 is denoted as B); HRAS/KRAS (ratio of KD value with respect to HRAS to KD value with respect to KRAS) [3]: B (a compound having 3 or more and less than 10 is denoted as B)
2 | CCO[C@@H]1C[C@H]2C(=O)NC3(CC(C)(C)C3)C(=O)N(C)[C@@H](C(CC)CC)C(=O)N(C)[C@H](C(=O)N(C)C)CC(=O)N(C)[C@@H](CC)C(=O)N[C@@H]([C@@H](C)CC)C(=O)N(C)CC(=O)N(C)[C@H]3C/C=C\CCN(C3=O)[C@@H](Cc3ccc(C)cc3)C(=O)N(C)CC(=O)N[C@@H](CCc3cc(F)c(C(F)(F)F)c(F)c3)C(=O)N2C1 [PP2147] |  | 0.33 nM | A (a compound having 10 or more and less than 20 is denoted as A) | B (a compound having 3 or more and less than 10 is denoted as B) | 
3 | CCCN1C(=O)CN(C)C(=O)CN(C)C(=O)[C@H]([C@@H](C)CC)NC(=O)[C@H](CC(C)C)N(C)C(=O)C[C@@H](C(=O)N2CCOCC2)N(C)C(=O)[C@H](C2CCCC2)N(C)C(=O)C2(CCCC2)NC(=O)[C@@H]2CCCN2C(=O)[C@H](CCc2ccc(C(F)(F)F)c(Cl)c2)NC(=O)CN(C)C(=O)[C@@H]1Cc1ccc(F)cc1 [PP0214] ([NMeL]I[Sar][Sar][X9][Sar][hPhe(3-Cl-4-CF3)]P[Ac5c][NMeGly(cPent)][NMeD]-Morpholide; lactam N-11) | 0.13 nM |  | B (a compound having 3 or more and less than 10 is denoted as B) | C (A compound having a KD ratio of 0.1 or more and less than 3 is denoted as C) | 
4 | CCO[C@@H]1C[C@H]2C(=O)NC3(CCC3)C(=O)N(C)[C@@H](C3CCCC3)C(=O)N(C)[C@H](C(=O)N(C)CCOC)CC(=O)N(C)[C@@H](CC)C(=O)N[C@@H]([C@@H](C)CC)C(=O)N(C)CC(=O)N(C)[C@H]3C/C=C\CCN(C3=O)[C@@H](Cc3ccc(C(F)(F)F)cc3)C(=O)N(C)CC(=O)N[C@@H](CCc3ccc(C(F)(F)F)c(OC)c3)C(=O)N2C1 [PP1321, (2S,8S,12R,14S,20S,23S,27S,30S,36S,38Z)-20-cyclopentyl-12-ethoxy-27-ethyl-N-(2-methoxyethyl)-8-[2-[3-methoxy-4-(trifluoromethyl)phenyl]ethyl]-N,4,19,22,26,32,35-heptamethyl-30-[(1S)-1-methylpropyl]-3,6,9,15,18,21,25,28,31,34,42-undecaoxo-2-[[4-(trifluoromethyl)phenyl]methyl]spiro[1,4,7,10,16,19,22,26,29,32,35-undecazatricyclo[34.5.1.0^10,14]dotetracont-38-ene-17,1′-cyclobutane]-23-carboxamide] |  |  |  |  | Kd ([1]; SPR, Single Cycle Kinetics, 1:1 binding model): 0.08 nM; NRAS/KRAS (ratio of KD value for NRAS to KD value for KRAS) ([2]; KD ratio class): A (a compound having 10 or more and less than 20 is denoted as A); HRAS/KRAS (ratio of KD value for HRAS to KD value for KRAS) ([3]; KD ratio class): B (a compound having 3 or more and less than 10 is denoted as B)
5 | CCC[C@H]1C(=O)N[C@@H]([C@@H](C)CC)C(=O)N(C)CC(=O)N(C)[C@H]2C/C=C\CCN(C2=O)[C@@H](Cc2ccc(C(F)(F)F)cc2)C(=O)N(C)CC(=O)N[C@@H](CCc2cc(F)c(C(F)(F)F)c(F)c2)C(=O)N2C[C@H](OCC)C[C@H]2C(=O)NC2(CC(C)(C)C2)C(=O)N(C)[C@@H](CC2CC2)C(=O)N(C)[C@H](C(=O)N(C)C)CC(=O)N1C [PP2807] | 0.34 nM |  |  |  | NRAS/KRAS (ratio of KD value with respect to GDP-bound NRAS wild-type protein to KD value with respect to KRAS) ([2]; SPR KD ratio NRAS/KRAS, class symbols): AA (a compound having 20 or more is denoted as AA); HRAS/KRAS (ratio of KD value with respect to GDP-bound HRAS wild-type protein to KD value with respect to KRAS) ([3]; SPR KD ratio HRAS/KRAS, class symbols): A (a compound having 10 or more and less than 20 is denoted as A)
6 | CCO[C@@H]1C[C@H]2C(=O)NC3(CCC3)C(=O)N(C)[C@@H](C3CCCC3)C(=O)N(C)[C@H](C(=O)N3C[C@@H](C)O[C@@H](C)C3)CC(=O)N(C)[C@@H](CC(C)C)C(=O)N[C@@H]([C@@H](C)CC)C(=O)N(C)CC(=O)N(C)[C@H]3CCCCCN(C3=O)[C@@H](Cc3ccc(F)cc3)C(=O)N(C)CC(=O)N[C@@H](CCc3ccc(C(F)(F)F)c(Cl)c3)C(=O)N2C1 [PP1153] |  | 0.28 nM | B (a compound having 3 or more and less than 10 is denoted as B) | B (a compound having 3 or more and less than 10 is denoted as B) | 
7 | CCO[C@@H]1C[C@H]2C(=O)NC3(CCC3)C(=O)N(C)[C@@H](C3CCCC3)C(=O)N(C)[C@H](C(=O)N(C)C)CC(=O)N(C)[C@@H](CC)C(=O)N[C@@H]([C@@H](C)CC)C(=O)N(C)CC(=O)N(C)[C@H]3CC=C(C)CN(C3=O)[C@@H](Cc3ccc(C(F)(F)F)cc3)C(=O)N(C)CC(=O)N[C@@H](CCc3cc(F)c(C(F)(F)F)c(F)c3)C(=O)N2C1 [PP0827] |  | 0.11 nM | C (A compound having a KD ratio of 0.1 or more and less than 3 is denoted as C) | C (A compound having a KD ratio of 0.1 or more and less than 3 is denoted as C) | 
8 | CC[C@H](C)[C@@H]1NC(=O)[C@H](CC(C)C)N(C)C(=O)C[C@@H](C(=O)N2CCOCC2)N(C)C(=O)[C@H](C2CCCC2)N(C)C(=O)C2(CCCC2)NC(=O)[C@@H]2CCCN2C(=O)[C@H](CCc2ccc(C(F)(F)F)c(Cl)c2)NC(=O)CN(CC)C(=O)[C@H](Cc2ccc(C)cc2)N(C)C(=O)CN(C)C(=O)CN(C)C1=O [PP0025] ([NMeL]I[Sar][Sar][NMePhe(4-Me)][NEtG][hPhe(3-Cl-4-CF3)]P[Ac5c][NMeGly(cPent)][NMeD]-Morpholide; lactam N-11) | 2.4 nM |  | C (A compound having a KD ratio of 0.1 or more and less than 3 is denoted as C) | C (A compound having a KD ratio of 0.1 or more and less than 3 is denoted as C) | 
9 | CCC[C@H]1C(=O)N[C@@H]([C@@H](C)CC)C(=O)N2CCC[C@H]2C(=O)N(C)[C@H]2C/C=C\CCN(C2=O)[C@@H](CC2CCCCC2)C(=O)N(C)CC(=O)N[C@@H](CCc2ccc(C(F)(F)F)c(OC)c2)C(=O)N2C[C@H](OCC)C[C@H]2C(=O)N(C)C2(CCC2)C(=O)N(C)[C@@H](C2CCCC2)C(=O)N(C)[C@H](C(=O)N(C)C)CC(=O)N1C [PP2344] |  | 0.95 nM | A (a compound having 10 or more and less than 20 is denoted as A) | A (a compound having 10 or more and less than 20 is denoted as A) | 
10 | CC[C@H](C)[C@@H]1NC(=O)[C@H](CC(C)C)N(C)C(=O)C[C@@H](C(=O)N2CCOCC2)N(C)C(=O)[C@H](C2CCCC2)N(C)C(=O)C2(CCCC2)NC(=O)[C@@H]2CCCN2C(=O)[C@H](CCc2ccc(C(F)(F)F)c(Cl)c2)NC(=O)CN(C)C(=O)[C@H](Cc2ccc(Cl)cc2)N2C/C=C\CC[C@@H](C2=O)N(C)C(=O)CN(C)C1=O [PP0608] | 1.7 nM |  |  |  | NRAS/KRAS (ratio of KD value with respect to NRAS to KD value with respect to KRAS) [2]: C (A compound having a KD ratio of 0.1 or more and less than 3 is denoted as C); HRAS/KRAS (ratio of KD value with respect to HRAS to KD value with respect to KRAS) [3]: B (a compound having 3 or more and less than 10 is denoted as B)
11 | CCO[C@@H]1C[C@H]2C(=O)NC3(CC(C)(C)C3)C(=O)N(C)[C@@H](C(CC)CC)C(=O)N(C)[C@H](C(=O)N(C)C)CC(=O)N(C)[C@@H](C(C)C)C(=O)N[C@@H]([C@@H](C)CC)C(=O)N(C)CC(=O)N(C)[C@H]3C/C=C\CCN(C3=O)[C@@H](Cc3ccc(C(F)(F)F)cc3)C(=O)N(C)CC(=O)N[C@@H](CCc3cc(F)c(C(F)(F)F)c(F)c3)C(=O)N2C1 [PP2135] |  | 0.49 nM | AA (a compound having 20 or more is denoted as AA) | A (a compound having 10 or more and less than 20 is denoted as A) | 
12 | CCCN1C(=O)CN(C)C(=O)CN(C)C(=O)[C@H]([C@@H](C)CC)NC(=O)[C@H](CC(C)C)N(C)C(=O)C[C@@H](C(=O)N(C)C)N(C)C(=O)[C@H](C2CCCC2)N(C)C(=O)[C@](C)(CC(C)C)NC(=O)[C@@H]2CCCN2C(=O)[C@H](CCc2cc(F)c(C(F)(F)F)c(F)c2)NC(=O)CN(C)C(=O)[C@@H]1Cc1ccc(C(F)(F)F)cc1 [PP0738] ([NMeL]I[Sar][Sar][NPrPhe(4-CF3)][Sar][hPhe(3,5-F2-4-CF3)]P[αMeL][NMeGly(cPent)][NMeD]-NMe2; lactam N-11) | 0.64 nM |  |  |  | NRAS/KRAS (ratio of KD value with respect to NRAS to KD value with respect to KRAS) [2]: B (a compound having 3 or more and less than 10 is denoted as B); HRAS/KRAS (ratio of KD value with respect to HRAS to KD value with respect to KRAS) [3]: B (a compound having 3 or more and less than 10 is denoted as B)
